# Assays:
# [1] = test system: human CD8+ T lymphocytes; experiment: human CD8+ T lymphocytes differentiated into CTLs, flow cytometry; type: cell-based
# Description: (A and B) CD8^+ T cells isolated from spleens and LNs were polarized under Tc17-inducing conditions and treated with pentanoate for 3 days. Representative contour plots (A) and bar graphs (B) indicate the frequency of IL-17^+ and IFN-γ+ cells. Three similar experiments were performed. (C and D) CD8^+ T cells isolated from spleens and LNs were polarized under Tc9-inducing conditions and treated with pentanoate for 3 days. Representative contour plots (C) and bar graphs (D) are showing the frequency of IL-9^+ and IFN-γ+ cells. Three similar experiments were performed. (E and F) The expression of granzyme B, IFN-γ and Eomes in pentanoate-treated human CTLs was analysed by flow cytometry. Five independent experiments were performed (E). For Eomes, mean fluorescence intensity (MFI) values are shown (F, n=3).
# (A) CD8^+ T cells isolated from peripheral blood of healthy donors were differentiated into CTLs in presence or absence of indicated HDACi. Representative contour plots and dot plots indicate the frequency of TNF-α+ and IFN-γ^+ cells. Data points in the graphs represent individual donors (n=4, performed in 4 independent experiments) (B-G) Phenotyping of pentanoate-treated ROR1-specific CD8^+ CAR T cells (CARROR1 T cells). (B) Experimental setup for the functional analysis is shown. (C) The cytokine secretion (IFN-γ and TNF-α) was analysed in supernatants of pentanoate-treated CARROR1 T cells by ELISA. (D) The surface expression of CD25 was measured by flow cytometry. (E) The secretion of IL-2 was detected in supernatants of CARROR1 T cells by ELISA. (F) Proliferation of CARROR1 T cells was determined by CFSE labelling. CARROR1 T cells pre-treated with pentanoate were stained with CFSE and subsequently co-cultured with […] cells in the absence of pentanoate. CD8^+ T cells without the CAR construct were used as mock control cells. […] The percentage of lysed target cells was determined in 1 hour intervals (effector-to-target cell (E:T) ratio=2.5:1). […]
# [2] = test system: CTLs; experiment: co-transfer of pentanoate-treated and control CTLs into Rag1-deficient mice; type: in vivo
# Excerpt: To investigate the capacity of SCFAs on survival and persistence of CD8^+ T cells, we mixed pentanoate-treated CTLs (CD45.2^+) with control CTLs (CD45.1^+) at 1:1 ratio and co-transferred them into Rag1-deficient mice. To better mimic the in vivo tumor microenvironment, we also adoptively co-transferred Tregs (CD45.2^+ from FIR×tiger reporter mice) that are frequently found in solid tumors. In addition, Foxp3^−CD4^+ T cells were co-transferred as the cellular source of IL-2 (FIG. 9, A and B). […] The capacity of CFSE to label proliferative cells was used for in vivo monitoring of CD8^+ T cell proliferation in Rag1-deficient mice after pretreatment with pentanoate. […] Given the importance of CD25 in supporting an effective IL-2R signalling, as well as the proliferation and survival of lymphocytes, we next asked whether pentanoate is capable of modulating CD25 expression in CTLs.
# (A) experimental setup for investigating CTL persistence in vivo is shown. (B-D) The frequency (B, C) and total cell numbers (D) of transferred T cells (WT CD45.1^+ CTLs, WT CD45.2^+ pentanoate-treated CTLs and Foxp3^+CD45.2^+ Tregs from FIR×tiger mice) in Rag1-deficient mice on days 15 after the adoptive transfer are shown. The co-transferred Foxp3^−CD4^+ cells were excluded from the gate (B, C). In D, n=_3 mice/group/experiment, data from 2 pooled independent experiments are shown. […] (G and H) Frequencies and cell numbers of CD25^+ CD8^+ T cells were analysed by flow cytometry on day 15 after transfer of control CTLs (CD45.1^+) and pentanoate-treated CTLs (CD45.2^+) into Rag1-deficient mice (n=3 mice/group/experiment, data pooled from 2 independent experiments). […] The phosphorylated (p)-STAT5 levels were analysed by flow cytometry (n=5, performed in 3 independent experiments). (J) The secretion of IL-2 in pentanoate-treated CTLs cultured for indicated time points was measured by ELISA (n=4, pooled from 2 independent experiments).
# [3] = test system: STAT5; experiment: IL-2-induced phosphorylation of STAT5 in CTLs, flow cytometry; type: cell-based, murine; details: CTLs generated with pentanoate 3 day, IL-2 50 U/ml
# Excerpt: (A) experimental setup for investigating CTL persistence in vivo is shown. (B-D) The frequency (B, C) and total cell numbers (D) of transferred T cells (WT CD45.1^+ CTLs, WT CD45.2^+ pentanoate-treated CTLs and Foxp3^+CD45.2^+ Tregs from FIR×tiger mice) in Rag1-deficient mice on days 15 after the adoptive transfer are shown. The co-transferred Foxp3^−CD4^+ cells were excluded from the gate (B, C). In D, n=_3 mice/group/experiment, data from 2 pooled independent experiments are shown. (E) The CFSE label of transferred T cells (WT CD45.1 CTLs, WT CD45.2^+ pentanoate-treated CTLs and CD45.2^+CD4^+ T cells) in Rag1-deficient mice on days 4 after the adoptive transfer are shown (n=3 mice/group/experiment, data pooled from 2 independent experiments are shown). […] (G and H) Frequencies and cell numbers of CD25^+ CD8^+ T cells were analysed by flow cytometry on day 15 after transfer of control CTLs (CD45.1^+) and pentanoate-treated CTLs (CD45.2^+) into Rag1-deficient mice (n=3 mice/group/experiment, data pooled from 2 independent experiments). […] The phosphorylated (p)-STAT5 levels were analysed by flow cytometry (n=5, performed in 3 independent experiments). (J) The secretion of IL-2 in pentanoate-treated CTLs cultured for indicated time points was measured by ELISA (n=4, pooled from 2 independent experiments).
# [4] = test system: mTOR; experiment: phosphorylation of mTOR and S6 in murine CTLs; type: cell-based; details: pentanoate 2.5 mM, three days
# Description: (§1) (A and B) CTLs were cultured in medium containing 1.0% FCS and treated with pentanoate (2.5 mM) for three days. Representative histogram plots and bar graphs indicate the phoshorylated levels of mTOR (A) and S6 ribosomal protein (B), respectively (n=3 pooled from three independent experiments). (C and D) Human CTLs were cultured in medium containing 1.0% serum and treated with indicated HDACi for three days. Representative histogram plots and bar graphs indicate the phoshorylated levels of mTOR (C) and S6 ribosomal protein (D), respectively (data points represent four individual healthy donors) (E) Measurement of extracellular acidification rate (ECAR) for in vitro generated murine CTLs cultured with or without 2.5 mM pentanoate for three days. ECAR was measured under basal conditions and in response to glucose (10 mM), oligomycin (2 μM), and 2-deoxy-glucose (2-DG, 100 mM). One of three independent experiments is shown.
# [5] = test system: CTLs; experiment: extracellular acidification rate (ECAR) of CTLs; type: cell-based, murine; details: 2.5 mM pentanoate, three days
# Description: as §1
# [6] = test system: ROR1-expressing Panc02 pancreatic tumor cells (PancROR1); experiment: transfer of pretreated ROR1-specific CAR T cells into mice bearing s.c. PancROR1 tumors; type: in vivo
smiles,measurement,setting,value
CCCCC(=O)O [pentanoate],"expression of granzyme B, IFN-γ and Eomes",[1],enhancing the expression
same,expression of TNF-α and IFN-γ,[1]; healthy donors,enhancing the expression
same,"frequencies and numbers of CD25+CD8+ T cells in iLN, mLN and spleen","[2]; day 15 after transfer, vs control CTLs",increased frequencies and numbers
same,in vivo proliferation of CFSE labelled CD8+ T cells,"[2]; days 4 after transfer, vs control CTLs",stronger proliferative ability
same,cell number and frequency of transferred CD8+ T lymphocytes,"[2]; days 15 after transfer, without cognate antigen",high cell number and frequency
same,STAT5 activity in response to IL-2,[3],stronger STAT5 activity
same,phosphorylation level of S6 ribosomal protein,[4],elevated the phosphorylation levels
same,phosphorylation level of mTOR,[4],elevated the phosphorylation levels
same,extracellular acidification rate (ECAR),[5],increased
same,tumor volume and weight,[6]; day 10 following administration of pentanoate-treated CAR T cells,significantly diminished
same,frequency and number of IFN-γ+TNF-α+ CAR T cells in tumors,[6]; vs control CAR T lymphocytes,elevated frequency and number

# Source: patent US20220364056A1, “SHORT-CHAIN FATTY ACID PENTANOATE AS ENHANCER FOR CELLULAR THERAPY AND ANTI-TUMOR THERAPY” (PHILIPPS-UNIVERSITÄT MARBURG, priority 2019, published 2022)
